According to patent US9409893B2, “Heteroaryl derivatives and uses thereof” (Jacobus Pharmaceutical Company, Inc., priority 2012, dated 2016):
pIC50: −log10 of the molar value. Counter-ions that a name gives are not always drawn. Like-named read-outs stand apart in the source and are kept apart here.

How the values were obtained:
[1] = system: P. falciparum strain D6; assay: [3H]-hypoxanthine growth inhibition assay, P. falciparum D6; format: cell-based; settings: Plasmodium falciparum
Method: (§1) The potential for antimalarial activity against Plasmodium falciparum was determined by measuring the incorporation of tritiated hypoxanthine into parasitized red blood cells.
(§2) Stock solutions of the test compounds and the reference drug chloroquine (CQ) (Sigma Chemicals C-6628, Lot #059H0919) were prepared in silanized glass vials with AquaSil™ (Pierce, USA) to minimize absorption of the compounds to glassware. All test compounds were dissolved in DMSO (Sigma Cat No. #D8418) to 1 mM concentration, whereas CQ was dissolved in 50% methanol at a concentration of 1.6 mg/ml (base). Stock solutions were stored at −20° C.
(§3) The P. falciparum laboratory adapted strains utilized in this project (Table 1) were in vitro cultured and routinely maintained in RPMI-1640-LPLF complete medium, which contained low concentrations of para-amino benzoic acid (0.0005 mg/L) and folic acid (0.01 mg/L).
(§4) The low concentration of folic acid in RPMI-1640-LPLF prevents inhibition of the compound if its activity targets the parasite's folate metabolic pathway. Parasites were cultured in human red blood cells (RBCs) in vitro at 37° C. in special gas mixture (5% O2, 5% CO2 and 90% N2) as described Trager and Jensen (1979 Science 193:673-675).
(§5) Base cultivation medium consisted of 10.4 g/L RPMI-1640-LPLF powder (Gibco BRL), 5.97 g/L HEPES buffer (MP Biomedicals, USA), 2.0 g/L D-glucose (BDH chemicals, Australia), 0.05 g/L hypoxanthine (Sigma, USA) and 40 mg/L gentamycin (Pfizer, Australia). The pH of the medium was adjusted to 6.9 and the solution was filtered using 0.2 μm pore size (AcroCap, Gelman Science, USA). Complete medium was prepared by adding sodium bicarbonate solution (final concentration, 0.21%) and drug-free heat-inactivated human plasma, pooled from various blood types, obtained from the Australian Red Cross Blood Service (Brisbane) (final concentration, 10%) to the base RPMI-1640-LPLF. For [^3H]-hypoxanthine inhibition growth assay, RPMI-1640-LPLF complete medium which lacked [^3H]-hypoxanthine ([^3H]-RPMI-1640-LPLF) was used to prevent uptake of hypoxanthine by parasites, as radioactive hypoxanthine uptake is measured as a surrogate marker of growth. All complete medium was used within three days of preparation. See DE (Para) SOP 002 for methodology.
(§6) Red blood cells (RBC) were required for P. falciparum parasites to proliferate in vitro. 0 (Rh+) type blood was obtained from the Australian Red Cross Blood Service. The RBC were washed twice in phosphate-buffered saline (PBS) and once in [^3H]-RPMI-1640-LPLF complete medium by centrifugation at 1,500×g for 5 min. Following the final wash, the haematocrit was measured as the percent of RBC to total culture volume. The haematocrit was adjusted to 50% by removing or adding [^3H]-RPMI-LPLF complete medium. See DE (Para) SOP 003 for methodology.
(§7) All P. falciparum strains were grown in RPMI-1640-LPLF complete medium at 4% haematocrit and 1% to 8% parasitaemia at 37° C. in sealed flasks in a gas mixture of 5% O2, 5% CO2 and 90% N2 (BOC Gases, Brisbane, Australia). For drug susceptibility assays cultures were routinely synchronized when the majority of parasites (>85%) were at early trophozoite (ring) stage. Synchronization involved removing the more mature erythrocytic parasite stages by lysis, resulting in the retention only of early trophozoite (ring) stages. Synchronization was performed by re-suspending the infected red blood cell (iRBC) pellet in 5 to 10 times its volume of 5% D-sorbitol (Bacto Laboratories Pty. Ltd., Australia) for 5 min (Lambros and Vanderberg, 1979 J Parasitol 65: 418-420). The mixture was centrifuged (1,500 rpm for 5 min) and the supernatant removed. The iRBC were washed twice using PBS buffer and once using [^3H]-RPMI-LPLF plain medium. Following synchronization, a new culture was prepared with an initial parasitaemia of 1% in RPMI-LPLF complete medium. See DE (Para) SOP 008 for methodology.

[2] = system: P. falciparum strain W2; assay: [3H]-hypoxanthine growth inhibition assay, P. falciparum W2; format: cell-based; settings: Plasmodium falciparum
Method: as §1, §2, §3, §4, §5, §6, §7

[3] = P. falciparum D6 (sensitive to chloroquine and pyrimethamine), [3H]-hypoxanthine incorporation, read-out: D6 IC50
[4] = P. falciparum W2 (resistant to chloroquine and pyrimethamine), [3H]-hypoxanthine incorporation, read-out: W2 IC50

Q: How did the pIC50 ([1]; D6, read-out: D6 IC50) turn out when `Cc1ccc(-c2cc(C(C)(C)C)cc(CNC(C)(C)C)c2O)cn1` [Example 30, 4-(tert-Butyl)-2-((tert-butylamino)methyl)-6-(6-methylpyridin-3-yl)phenol dihydrochloride] was run?
A: 7.17

Q: What about the pIC50 ([2]; W2, read-out: W2 IC50) of the same compound?
A: 7.38

Q: `CC(C)(C)NCc1cc(C(C)(C)C)cc(-c2ncccc2C(F)(F)F)c1O` [Example 31, 4-(tert-Butyl)-2-((tert-butylamino)methyl)-6-(3-(trifluoromethyl)pyridin-2-yl)phenol 1.7hydrochloride] was tested. Which pIC50 [1, 3] did it give?
A: 5.26

Q: And the pIC50 [2, 4]?
A: 5.64

Q: How did the pIC50 [1, 3] turn out when `CC(C)(C)NCc1cc(C(C)(C)C)cc(-c2cnc(C(F)(F)F)cn2)c1O` [Example 32, 4-(tert-Butyl)-2-((tert-butylamino)methyl)-6-(5-(trifluoromethyl)pyrazin-2-yl)phenol hydrochloride] was run?
A: 7.42

Q: What about the pIC50 [2, 4] of the same compound?
A: 7.96

Q: What does the source list for `CC(C)(C)NCc1cc(C(C)(C)C)cc(-c2ccncc2C(F)(F)F)c1O` [Example 35, 4-(tert-Butyl)-2-((tert-butylamino)methyl)-6-(3-(trifluoromethyl)pyridin-4-yl)phenol dihydrochloride]?
A: pIC50 ([1]; D6, read-out: D6 IC50): 6.26; pIC50 ([2]; W2, read-out: W2 IC50): 6.84

Q: How did the pIC50 [1, 3] turn out when `CC(C)(C)NCc1cc(C(C)(C)C)cc(-c2cnccc2C(F)(F)F)c1O` [Example 36, 4-(tert-Butyl)-2-((tert-butylamino)methyl)-6-(4-(trifluoromethyl)pyridin-3-yl)phenol 1.9hydrochloride] was run?
A: 6.11

Q: And the pIC50 [2, 4]?
A: 6.40

Q: With `CC(C)(C)NCc1cc(-c2cccnc2)cc(-c2cccnc2)c1O` [Example 37, 2-((tert-Butylamino)methyl)-4,6-di(pyridin-3-yl)phenol] as the compound, how does the pIC50 [1, 3] read?
A: 5.30

Q: What about the pIC50 [2, 4] of the same compound?
A: 5.30

Q: Which results are given for `CC(C)(C)NCc1cc(-c2ccc(C(F)(F)F)nc2)cc(-c2ccc(C(F)(F)F)nc2)c1O` [Example 38, 2-((tert-Butylamino)methyl)-4,6-bis(6-(trifluoromethyl)pyridin-3-yl)phenol]?
A: pIC50 [1, 3]: 5.15; pIC50 [2, 4]: 5.30

Q: With `CC(C)(C)NCc1cc(-c2ccc(Cl)c(C(F)(F)F)c2)cc(-c2ccc(C(F)(F)F)nc2)c1O` [Example 39, 3-((tert-Butylamino)methyl)-4′-chloro-3′-(trifluoromethyl)-5-(6-(trifluoromethyl)pyridin-3-yl)-[1,1′-biphenyl]-4-ol hydrochloride] as the compound, how does the pIC50 [1, 3] read?
A: 7.14

Q: What about the pIC50 [2, 4] of the same compound?
A: 7.38

Q: With `CC(C)(C)NCc1cc(C(C)(C)C)cc(-c2ccc(C(F)(F)F)cn2)c1O` [Example 40, 4-(tert-Butyl)-2-((tert-butylamino)methyl)-6-(5-(trifluoromethyl)pyridin-2-yl)phenol] as the compound, how does the pIC50 [1, 3] read?
A: 6.64

Q: And the pIC50 [2, 4]?
A: 7.10

Q: With `CN(Cc1cc(C(C)(C)C)cc(-c2ccc(C(F)(F)F)nc2)c1O)C(C)(C)C` [Example 45, 4-(tert-Butyl)-2-((tert-butyl(methyl)amino)methyl)-6-(6-(trifluoromethyl)pyridin-3-yl)phenol hydrochloride] as the compound, how does the pIC50 [1, 3] read?
A: 6.56

Q: What about the pIC50 [2, 4] of the same compound?
A: 6.97

Q: Which results are given for `CC(C)(C)NCc1cc(C(C)(C)C)cc(-c2nccc(C(F)(F)F)n2)c1O` [Example 46, 4-(tert-Butyl)-2-((tert-butylamino)methyl)-6-(4-(trifluoromethyl)pyrimidin-2-yl)phenol hydrochloride]?
A: pIC50 [1, 3]: 5.68; pIC50 [2, 4]: 5.70

Q: With `CCN(CC)Cc1cc(C(C)(C)C)cc(-c2ccc(C(F)(F)F)nc2)c1O` [Example 47, 4-(tert-Butyl)-2-((diethylamino)methyl)-6-(6-(trifluoromethyl)pyridin-3-yl)phenol hydrochloride] as the compound, how does the pIC50 [1, 3] read?
A: 7.37

Q: And the pIC50 [2, 4]?
A: 7.51

Q: What does the source list for `CC(C)NCc1cc(C(C)(C)C)cc(-c2ccc(C(F)(F)F)nc2)c1O` [Example 48, 4-(tert-Butyl)-2-((isopropylamino)methyl)-6-(6-(trifluoromethyl)pyridin-3-yl)phenol hydrochloride]?
A: pIC50 [1, 3]: 8.30; pIC50 [2, 4]: 8.30

Q: Which results are given for `CC(C)(C)c1cc(CN2CCOCC2)c(O)c(-c2ccc(C(F)(F)F)nc2)c1` [Example 49, 4-(tert-Butyl)-2-(morpholinomethyl)-6-(6-(trifluoromethyl)pyridin-3-yl)phenol hydrochloride]?
A: pIC50 [1, 3]: 6.61; pIC50 [2, 4]: 6.67

Q: Which results are given for `CN1CCN(Cc2cc(C(C)(C)C)cc(-c3ccc(C(F)(F)F)nc3)c2O)CC1` [Example 50, 4-(tert-Butyl)-2-((4-methylpiperazin-1-yl)methyl)-6-(6-(trifluoromethyl)pyridin-3-yl)phenol dihydrochloride]?
A: pIC50 ([1]; D6, read-out: D6 IC50): 6.53; pIC50 ([2]; W2, read-out: W2 IC50): 6.80

Q: How did the pIC50 [1, 3] turn out when `CC(C)(C)c1cc(CN2CCCCC2)c(O)c(-c2ccc(C(F)(F)F)nc2)c1` [Example 51, 4-(tert-Butyl)-2-(piperidin-1-ylmethyl)-6-(6-(trifluoromethyl)pyridin-3-yl)phenol hydrochloride] was run?
A: 7.34

Q: And the pIC50 [2, 4]?
A: 7.62

Q: How did the pIC50 [1, 3] turn out when `CC(C)(C)c1cc(CN2CCCC2)c(O)c(-c2ccc(C(F)(F)F)nc2)c1` [Example 52, 4-(tert-Butyl)-2-(pyrrolidin-1-ylmethyl)-6-(6-(trifluoromethyl)pyridin-3-yl)phenol hydrochloride] was run?
A: 7.64

Q: What about the pIC50 [2, 4] of the same compound?
A: 7.85

Q: `CC(=O)N1CCN(Cc2cc(C(C)(C)C)cc(-c3ccc(C(F)(F)F)nc3)c2O)CC1` [Example 53, 1-(4-(5-(tert-Butyl)-2-hydroxy-3-(6-(trifluoromethyl)pyridin-3-yl)benzyl)piperazin-1-yl)ethanone hydrochloride] was tested. Which pIC50 [1, 3] did it give?
A: 5.44

Q: And the pIC50 [2, 4]?
A: 5.64

Q: How did the pIC50 [1, 3] turn out when `CC(C)(C)NCc1cc(C(C)(C)C)cc(-c2ncc(C(F)(F)F)cn2)c1O` [Example 54, 4-(tert-Butyl)-2-((tert-butylamino)methyl)-6-(5-(trifluoromethyl)pyrimidin-2-yl)phenol hydrochloride] was run?
A: 5.20

Q: And the pIC50 [2, 4]?
A: 5.21

Q: What does the source list for `CC(C)(C)NCc1cc(-c2ccc(S(C)(=O)=O)cc2)cc(-c2ccc(C(F)(F)F)nc2)c1O` [Example 55, 3-((tert-Butylamino)methyl)-4′-(methylsulfonyl)-5-(6-(trifluoromethyl)pyridin-3-yl)-[1,1′-biphenyl]-4-ol hydrochloride]?
A: pIC50 [1, 3]: 5.60; pIC50 [2, 4]: 5.40

Q: Which results are given for `CC(C)(C)NCc1cc(C(C)(C)C)cc(-c2ccc(C(F)(F)F)nn2)c1O` [Example 56, 4-(tert-Butyl)-2-((tert-butylamino)methyl)-6-(6-(trifluoromethyl)pyridazin-3-yl)phenol hydrochloride]?
A: pIC50 [1, 3]: 6.98; pIC50 [2, 4]: 6.93

Q: `CC(C)(C)c1cc(CNCCC(F)(F)F)c(O)c(-c2ccc(C(F)(F)F)nc2)c1` [Example 57, 4-(tert-Butyl)-2-(6-(trifluoromethyl)pyridin-3-yl)-6-(((3,3,3-trifluoropropyl)amino)methyl)phenol hydrochloride] was tested. Which pIC50 [1, 3] did it give?
A: 7.47

Q: And the pIC50 [2, 4]?
A: 7.54

Q: How did the pIC50 ([1]; D6, read-out: D6 IC50) turn out when `CCN(CC)CCCC(C)NCc1cc(C(C)(C)C)cc(-c2ccc(C(F)(F)F)nc2)c1O` (stereo not drawn) [Example 59, 4-(tert-Butyl)-2-(((5-(diethylamino)pentan-2-yl)amino)methyl)-6-(6-(trifluoromethyl)pyridin-3-yl)phenol dihydrochloride] was run?
A: 7.06

Q: And the pIC50 ([2]; W2, read-out: W2 IC50)?
A: 7.01

Q: Which results are given for `CC(C)(C)NCCCNCc1cc(C(C)(C)C)cc(-c2ccc(C(F)(F)F)nc2)c1O` [Example 60, 4-(tert-Butyl)-2-(((3-(tert-butylamino)propyl)amino)methyl)-6-(6-(trifluoromethyl)pyridin-3-yl)phenol dihydrochloride]?
A: pIC50 ([1]; D6, read-out: D6 IC50): 6.87; pIC50 ([2]; W2, read-out: W2 IC50): 6.76
